The text below walks through data of article PMC8213057, “Targeting ALK2: An Open Science Approach to Developing Therapeutics for the Treatment of Diffuse Intrinsic Pontine Glioma” (Journal of Medicinal Chemistry, 2020).

Values joined by “and” are separate entries in the source; they are usually repeats but may differ in a detail not shown here. Equal entries are not always repeated.

The target of one test is T1, BRSK2 (Homo sapiens, UniProt Q8IWQ3).
T1 sequence (Q8IWQ3 1-736): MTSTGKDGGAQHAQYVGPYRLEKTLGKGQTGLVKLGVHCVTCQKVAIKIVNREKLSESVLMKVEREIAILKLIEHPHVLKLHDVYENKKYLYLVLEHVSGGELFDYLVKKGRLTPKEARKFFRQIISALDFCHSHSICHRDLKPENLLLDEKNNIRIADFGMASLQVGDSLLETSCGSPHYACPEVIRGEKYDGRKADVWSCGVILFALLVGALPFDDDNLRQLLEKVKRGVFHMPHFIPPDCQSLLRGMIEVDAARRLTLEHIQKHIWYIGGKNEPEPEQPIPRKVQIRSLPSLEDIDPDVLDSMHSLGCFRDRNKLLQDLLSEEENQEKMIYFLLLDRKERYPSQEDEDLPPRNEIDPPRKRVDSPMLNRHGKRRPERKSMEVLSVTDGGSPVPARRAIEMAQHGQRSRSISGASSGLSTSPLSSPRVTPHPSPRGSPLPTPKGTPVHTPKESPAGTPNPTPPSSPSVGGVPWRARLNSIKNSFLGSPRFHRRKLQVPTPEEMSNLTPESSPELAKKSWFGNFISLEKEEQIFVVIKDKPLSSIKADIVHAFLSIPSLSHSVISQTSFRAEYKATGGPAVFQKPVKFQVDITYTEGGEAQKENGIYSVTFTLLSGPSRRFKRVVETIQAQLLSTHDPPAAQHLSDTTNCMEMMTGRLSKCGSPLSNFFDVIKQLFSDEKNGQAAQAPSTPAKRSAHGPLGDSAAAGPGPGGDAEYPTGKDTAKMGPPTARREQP
To be noted: 1 μM; Run 1, Run 2.

The target of the next test is T2, DLK/MAP3K12 (Homo sapiens, UniProt Q12852).
T2 sequence (Q12852 1-859): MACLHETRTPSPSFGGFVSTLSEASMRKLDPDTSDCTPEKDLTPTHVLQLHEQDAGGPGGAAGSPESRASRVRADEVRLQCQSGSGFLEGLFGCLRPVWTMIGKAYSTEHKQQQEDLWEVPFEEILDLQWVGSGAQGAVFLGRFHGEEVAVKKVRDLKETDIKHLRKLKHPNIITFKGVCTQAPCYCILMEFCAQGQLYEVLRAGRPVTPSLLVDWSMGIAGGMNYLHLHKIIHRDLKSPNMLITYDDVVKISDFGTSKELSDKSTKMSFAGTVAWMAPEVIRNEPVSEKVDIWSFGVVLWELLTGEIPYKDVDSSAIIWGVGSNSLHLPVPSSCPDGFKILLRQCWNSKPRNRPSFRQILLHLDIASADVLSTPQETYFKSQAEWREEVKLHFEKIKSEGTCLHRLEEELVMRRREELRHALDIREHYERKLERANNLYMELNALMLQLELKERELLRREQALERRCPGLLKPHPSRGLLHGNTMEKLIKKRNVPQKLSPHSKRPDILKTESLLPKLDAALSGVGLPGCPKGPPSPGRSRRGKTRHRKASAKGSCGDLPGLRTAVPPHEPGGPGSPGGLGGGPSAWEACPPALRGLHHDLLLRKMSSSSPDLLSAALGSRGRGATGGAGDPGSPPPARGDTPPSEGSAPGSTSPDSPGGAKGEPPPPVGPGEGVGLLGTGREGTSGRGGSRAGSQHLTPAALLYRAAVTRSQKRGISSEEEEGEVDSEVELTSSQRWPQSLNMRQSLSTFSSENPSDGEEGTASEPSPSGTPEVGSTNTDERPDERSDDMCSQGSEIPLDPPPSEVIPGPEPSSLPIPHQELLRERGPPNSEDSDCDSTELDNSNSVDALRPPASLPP
Put plainly: biochemical. To be noted: read-out: % enzyme activity, 1 μM; Run 1, Run 2.

A further test concerns the target T3, GCK/MAP4K2 (Homo sapiens, UniProt Q12851).
T3 sequence (Q12851 1-820): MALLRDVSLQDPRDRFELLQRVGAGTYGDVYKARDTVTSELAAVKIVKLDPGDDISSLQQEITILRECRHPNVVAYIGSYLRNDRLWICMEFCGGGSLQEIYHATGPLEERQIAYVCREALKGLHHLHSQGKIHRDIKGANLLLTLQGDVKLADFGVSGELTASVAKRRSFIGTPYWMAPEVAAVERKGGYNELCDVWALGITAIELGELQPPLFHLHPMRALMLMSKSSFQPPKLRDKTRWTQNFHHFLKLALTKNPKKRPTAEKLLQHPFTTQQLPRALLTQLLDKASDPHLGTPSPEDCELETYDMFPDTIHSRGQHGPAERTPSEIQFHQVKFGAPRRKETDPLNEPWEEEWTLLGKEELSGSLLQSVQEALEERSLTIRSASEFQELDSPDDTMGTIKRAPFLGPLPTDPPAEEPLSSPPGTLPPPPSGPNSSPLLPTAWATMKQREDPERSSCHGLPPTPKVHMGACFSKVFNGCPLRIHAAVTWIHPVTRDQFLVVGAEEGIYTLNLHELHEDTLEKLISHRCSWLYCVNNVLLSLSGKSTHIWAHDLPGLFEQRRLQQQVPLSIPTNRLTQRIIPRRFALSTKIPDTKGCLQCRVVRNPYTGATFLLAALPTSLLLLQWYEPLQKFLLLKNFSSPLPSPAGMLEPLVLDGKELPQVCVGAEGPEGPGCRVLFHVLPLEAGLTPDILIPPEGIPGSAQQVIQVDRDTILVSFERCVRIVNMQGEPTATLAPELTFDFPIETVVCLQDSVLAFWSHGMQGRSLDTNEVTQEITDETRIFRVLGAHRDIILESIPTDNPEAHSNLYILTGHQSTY
In words: biochemical. To be noted: read-out: % enzyme activity, 1 μM; Run 1, Run 2.

The target of the next test is T4, MKK4 (Homo sapiens, UniProt P45985).
T4 sequence (P45985 1-399): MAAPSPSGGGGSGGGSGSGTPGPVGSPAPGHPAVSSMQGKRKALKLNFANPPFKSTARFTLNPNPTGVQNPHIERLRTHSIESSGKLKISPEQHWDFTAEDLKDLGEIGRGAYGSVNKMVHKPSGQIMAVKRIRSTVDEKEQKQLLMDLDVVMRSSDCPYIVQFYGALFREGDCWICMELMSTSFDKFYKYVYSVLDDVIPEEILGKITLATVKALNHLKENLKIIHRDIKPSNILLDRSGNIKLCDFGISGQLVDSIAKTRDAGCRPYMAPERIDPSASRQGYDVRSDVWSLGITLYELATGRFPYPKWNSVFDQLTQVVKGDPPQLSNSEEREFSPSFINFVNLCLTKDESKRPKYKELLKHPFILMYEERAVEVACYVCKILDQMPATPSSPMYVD
Put plainly: biochemical. To be noted: read-out: % enzyme activity, 1 μM; Run 1, Run 2.

Another test addresses RSK1 (Homo sapiens, UniProt Q15418). In words: biochemical. To be noted: read-out: % enzyme activity, 1 μM; Run 1, Run 2.

Chain of RSK1 (Q15418 whole entry): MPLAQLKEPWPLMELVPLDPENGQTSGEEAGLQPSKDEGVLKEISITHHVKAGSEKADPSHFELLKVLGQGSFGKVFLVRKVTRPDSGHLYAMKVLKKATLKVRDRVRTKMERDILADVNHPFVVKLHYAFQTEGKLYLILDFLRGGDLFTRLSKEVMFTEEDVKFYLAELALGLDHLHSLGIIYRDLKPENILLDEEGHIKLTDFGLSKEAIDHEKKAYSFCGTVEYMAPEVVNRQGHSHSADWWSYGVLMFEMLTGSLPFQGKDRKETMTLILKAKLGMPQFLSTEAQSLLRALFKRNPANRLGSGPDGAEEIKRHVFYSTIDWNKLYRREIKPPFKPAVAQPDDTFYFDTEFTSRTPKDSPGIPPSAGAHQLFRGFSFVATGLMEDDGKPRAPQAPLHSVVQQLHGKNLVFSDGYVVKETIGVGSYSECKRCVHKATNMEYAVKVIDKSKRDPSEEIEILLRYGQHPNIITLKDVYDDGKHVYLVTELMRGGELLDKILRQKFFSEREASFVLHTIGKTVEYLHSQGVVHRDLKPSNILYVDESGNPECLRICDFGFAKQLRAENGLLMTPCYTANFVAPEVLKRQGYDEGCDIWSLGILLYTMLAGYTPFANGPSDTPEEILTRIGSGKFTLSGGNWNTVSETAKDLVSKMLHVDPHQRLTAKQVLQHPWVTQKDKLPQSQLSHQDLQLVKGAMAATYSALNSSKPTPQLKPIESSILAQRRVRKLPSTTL

Take `COc1cc(-c2cncc(-c3ccc(N4CCN(C)CC4)cc3)c2C)cc(F)c1C(N)=O` [Compound 26a, 2-Fluoro-6-methoxy-4-(4-methyl-5-(4-(4-methylpiperazin-1-yl)phenyl)pyridin-3-yl)benzamide]: the % enzyme activity at 1 μM in the test with TGFBR2 was 103% and 97.4%. Further, on BRSK2, the “% enzyme activity” value was found to be 60.95%. Also, the remaining activity at 1 µM on DLK/MAP3K12 was determined as 93.7%; on GCK/MAP4K2 it was 61.8%; at MKK4, 101%; on RSK1 it was 98.9%.
Consider `COc1cc(-c2cncc(-c3ccc(N4C[C@@H](C)N(C)[C@@H](C)C4)cc3)c2C)cc(F)c1C(N)=O` [Compound 26c, 2-Fluoro-6-methoxy-4-(4-methyl-5-(4-((3R,5S)-3,4,5-trimethylpiperazin-1-yl)phenyl)pyridin-3-yl)benzamide], for which the % enzyme activity at 1 μM in the test with TGFBR2 is 106% and 105%. Besides, at BRSK2, the “% enzyme activity” value came out at 76.84%. Moreover, the remaining activity at 1 µM on DLK/MAP3K12 came out at 99.2%; on GCK/MAP4K2 it was 75.4%; on MKK4 it was 94.6%; on RSK1, 102%.
